# From a polymer gas permeability compilation
SMILES,H2 permeability,N2 permeability,O2 permeability,CH4 permeability,CO2 permeability
*CC(*)OC1C2CC3CC(C2)CC1C3 (repeat unit),,1.69 Barrer,6.01 Barrer,,25.2 Barrer
*Oc1ccc(S(=O)(=O)c2ccc(Oc3ccc(C(C)(C)c4ccc(*)cc4)cc3N)cc2)cc1 (repeat unit),,0.12 Barrer,0.745 Barrer,0.12 Barrer,2.95 Barrer
*Cc1ccc(C*)c(Cl)c1 (repeat unit),0.931 Barrer,0.006 Barrer,0.0456 Barrer,,0.0867 Barrer
*Oc1ccc(S(=O)(=O)c2ccc(Oc3ccc(C(C)(C)c4ccc(*)c(C)c4)cc3C)cc2)cc1 (repeat unit),,0.0914 Barrer,0.64 Barrer,0.0706 Barrer,2.1 Barrer
*C(C)=C(*)C(C)C (repeat unit),5720 Barrer,1250 Barrer,2700 Barrer,2690 Barrer,10700 Barrer
*C(=C(*)c1ccc2c(c1)C(C)(C)CC2(C)C)c1ccc(C)cc1 (repeat unit),10800 Barrer,4100 Barrer,5700 Barrer,10100 Barrer,16900 Barrer
*C1C2CC(C1*)C([Si](C)(C)C)C2 (repeat unit),6700 Barrer,,1700 Barrer,1090 Barrer,
*CC(C#N)(C#N)CC(*)OC(C)=O (repeat unit),,0.0138 Barrer,0.16 Barrer,,
*OC(=O)Oc1ccc(C2(c3ccc(*)cc3)CC3CCC2C3)cc1 (repeat unit),22 Barrer,0.47 Barrer,2.4 Barrer,0.48 Barrer,9.1 Barrer
*[Si](C)(C)c1ccc([Si](*)(C)C)cc1 (repeat unit),,3.39 Barrer,14.1 Barrer,,
*C(C)=C(*)CC(C)C (repeat unit),750 Barrer,93 Barrer,245 Barrer,190 Barrer,900 Barrer
*Oc1ccc(S(=O)(=O)c2ccc(Oc3ccc(C(C)(c4ccccc4)c4ccc(*)cc4)cc3)cc2)cc1 (repeat unit),,0.278 Barrer,1.56 Barrer,0.32 Barrer,8.12 Barrer
*CC(C)C(=O)OC(C)C(*)=O (repeat unit),,0.04 Barrer,0.26 Barrer,1 Barrer,0.905 Barrer
*O[Si](*)(C)c1ccccc1 (repeat unit),,8.59 Barrer,28.8 Barrer,36 Barrer,239 Barrer
*OC(=O)Oc1c(C)cc(C(C)(C)c2cc(C)c(*)c(C)c2)cc1C (repeat unit),,1.07 Barrer,5.54 Barrer,0.955 Barrer,19.6 Barrer
*Cc1ccc(C*)c(C)c1 (repeat unit),0.994 Barrer,0.0157 Barrer,0.0572 Barrer,,0.265 Barrer
*Oc1ccc2c(c1)C1(CC2(C)C)CC(C)(C)c2ccc(OC(=O)c3cccc(C(*)=O)c3)cc21 (repeat unit),,1 Barrer,5.31 Barrer,1.14 Barrer,18.9 Barrer
*CC(*)(C)C(=O)OCC (repeat unit),21.8 Barrer,0.276 Barrer,1.52 Barrer,0.347 Barrer,6.03 Barrer
*O[Si](*)(C)CCCCCCCC (repeat unit),,88.3 Barrer,196 Barrer,313 Barrer,932 Barrer
*OC1OC(OC(C)=O)C(*)C(O)C1OC(C)=O (repeat unit),12 Barrer,0.14 Barrer,0.735 Barrer,0.15 Barrer,3.5 Barrer
*C(=C(*)c1ccc([Si](C)(C)CCCCCCCC)cc1)c1ccc(CCCC)cc1 (repeat unit),,7.9 Barrer,25 Barrer,,110 Barrer
*O[Si](*)(C)CC (repeat unit),,160 Barrer,332 Barrer,474 Barrer,1510 Barrer
*CC* (repeat unit),,0.237 Barrer,0.735 Barrer,3.85 Barrer,7.32 Barrer
*CC1CC(C*)C2C1C([Si](O[Si](C)(C)C)(O[Si](C)(C)C)O[Si](C)(C)C)C2[Si](O[Si](C)(C)C)(O[Si](C)(C)C)O[Si](C)(C)C (repeat unit),460 Barrer,75 Barrer,220 Barrer,215 Barrer,840 Barrer
*CCOC(=O)c1ccc2cc(C(=O)O*)ccc2c1 (repeat unit),,,0.0132 Barrer,,0.131 Barrer

# Second part, the molecule after the results:
H2 permeability,N2 permeability,O2 permeability,CH4 permeability,CO2 permeability,SMILES
8.31 Barrer,0.076 Barrer,0.501 Barrer,,,*c1ccc(Cc2ccc(N3C(=O)c4ccc(Oc5ccc(C(c6ccc(Oc7ccc8c(c7)C(=O)N(*)C8=O)cc6)(C(F)(F)F)C(F)(F)F)cc5)cc4C3=O)cc2)cc1 (repeat unit)
77 Barrer,1.9 Barrer,9.3 Barrer,1.7 Barrer,54 Barrer,*c1ccc(C(c2ccc(N3C(=O)c4ccc(Oc5cc(C)c(Oc6ccc7c(c6)C(=O)N(*)C7=O)c(C)c5C)cc4C3=O)cc2)(C(F)(F)F)C(F)(F)F)cc1 (repeat unit)
,,,0.014 Barrer,1.05 Barrer,*c1cccc(C(c2cccc(N3C(=O)c4ccc(C(=O)c5ccc6c(c5)C(=O)N(*)C6=O)cc4C3=O)c2)(C(F)(F)F)C(F)(F)F)c1 (repeat unit)
376 Barrer,13 Barrer,65 Barrer,8.1 Barrer,294 Barrer,*c1ccc2c(c1)-c1nc3ccc(-c4ccc5c(c4)nc4n5C(=O)c5cc(C(c6ccc7c(c6)C(=O)N(*)C7=O)(C(F)(F)F)C(F)(F)F)ccc5-4)cc3n1C2=O (repeat unit)
10.1 Barrer,0.17 Barrer,1.2 Barrer,0.143 Barrer,5.74 Barrer,*Oc1ccc(C2(c3ccc(Oc4ccc(S(=O)(=O)c5ccc(*)cc5)cc4)cc3)OC(=O)c3ccccc32)cc1 (repeat unit)
,0.96 Barrer,4.22 Barrer,0.84 Barrer,14.6 Barrer,*c1ccc(-c2ccc(Oc3ccc(C4(c5ccc(Oc6ccc(-c7ccc(N8C(=O)c9ccc(Oc%10ccc%11c(c%10)C(=O)N(*)C%11=O)cc9C8=O)cc7)cc6C(F)(F)F)cc5)c5ccccc5C(=O)N4c4ccccc4)cc3)c(C(F)(F)F)c2)cc1 (repeat unit)
16.1 Barrer,0.195 Barrer,1.14 Barrer,0.105 Barrer,4.67 Barrer,*c1ccc(Oc2ccc(C(c3ccc(Oc4ccc(N5C(=O)c6ccc(C(=O)c7ccc8c(c7)C(=O)N(*)C8=O)cc6C5=O)cc4)cc3)(C(F)(F)F)C(F)(F)F)cc2)cc1 (repeat unit)
58 Barrer,1.33 Barrer,6.6 Barrer,1.21 Barrer,39 Barrer,*c1c(C)cc(-c2cc(C)c(N3C(=O)c4cc5c(cc4C3=O)S(=O)(=O)c3cc4c(cc3S5(=O)=O)C(=O)N(*)C4=O)c(C)c2)cc1C (repeat unit)
22 Barrer,0.21 Barrer,1.4 Barrer,0.16 Barrer,6.7 Barrer,*c1ccc(-c2ccc(N3C(=O)c4ccc(Oc5cc(C(C)(C)C)ccc5Oc5ccc6c(c5)C(=O)N(*)C6=O)cc4C3=O)c(OC)c2)cc1OC (repeat unit)
,2.36 Barrer,12.2 Barrer,1.52 Barrer,44.7 Barrer,*c1ccc(-c2ccc(Oc3ccc4c(c3)C(C)(c3ccc(Oc5ccc(-c6ccc(-n7c(=O)c8cc9c(=O)n(*)c(=O)c9cc8c7=O)cc6)cc5C(F)(F)F)cc3)CC4(C)C)c(C(F)(F)F)c2)cc1 (repeat unit)
8.95 Barrer,0.084 Barrer,0.55 Barrer,,,*c1ccc(Oc2ccc(N3C(=O)c4ccc(Oc5ccc(C(c6ccc(Oc7ccc8c(c7)C(=O)N(*)C8=O)cc6)(C(F)(F)F)C(F)(F)F)cc5)cc4C3=O)cc2)cc1 (repeat unit)
4.52 Barrer,0.11 Barrer,0.76 Barrer,0.06 Barrer,3.21 Barrer,*c1ccc2c(-c3c(O)ccc4cc(N5C(=O)c6ccc(C(=O)c7ccc8c(c7)C(=O)N(*)C8=O)cc6C5=O)ccc34)c(O)ccc2c1 (repeat unit)
4.77 Barrer,0.026 Barrer,0.183 Barrer,,,*c1ccc(Oc2ccc(N3C(=O)c4ccc(Oc5ccc6c(c5)C(=O)N(*)C6=O)cc4C3=O)cc2)cc1 (repeat unit)
8.9 Barrer,0.11 Barrer,0.54 Barrer,,2.8 Barrer,*c1ccc(Oc2ccc(C(C)(C)c3ccc(Oc4ccc(N5C(=O)c6ccc(C(=O)c7ccc8c(c7)C(=O)N(*)C8=O)cc6C5=O)cc4)cc3)cc2)cc1 (repeat unit)
,0.364 Barrer,2.04 Barrer,0.471 Barrer,9.9 Barrer,*Oc1ccc(C(C)(C)c2ccc(OC(=O)c3ccc(C(=O)Oc4cc(-c5cc(*)cc6ccccc56)c5ccccc5c4)cc3)cc2)cc1 (repeat unit)
1620 Barrer,212 Barrer,640 Barrer,359 Barrer,4030 Barrer,*c1c(C)cc(-c2cc(C)c(N3C(=O)c4cc5c(cc4C3=O)C3(CC(C)(C)c4cc6c(cc43)C(=O)N(*)C6=O)CC5(C)C)c3ccccc23)c2ccccc12 (repeat unit)
,0.15 Barrer,1.04 Barrer,0.18 Barrer,5 Barrer,*OC(=O)c1ccc(C(=O)Oc2ccc(C3(c4ccc(O*)c(C)c4)OC(=O)c4ccccc43)cc2C)cc1 (repeat unit)
4.19 Barrer,0.0178 Barrer,0.18 Barrer,0.0109 Barrer,0.625 Barrer,*c1ccc(Oc2ccc(N3C(=O)c4ccc(C(=O)c5ccc6c(c5)C(=O)N(*)C6=O)cc4C3=O)cc2)cc1 (repeat unit)
150 Barrer,4.9 Barrer,22 Barrer,5.6 Barrer,95 Barrer,*c1c(C)cc(-c2cc(C)c(N3C(=O)c4ccc(Oc5cc(C(C)(C)C)c(Oc6ccc7c(c6)C(=O)N(*)C7=O)cc5C(C)(C)C)cc4C3=O)c(C)c2)cc1C (repeat unit)
